US6448203B1, “Substituted aryluracils” (Bayer Aktiengesellschaft, priority 1997, dated 2002)
Each block holds one compound with its values, some of them ahead of it.

Assays:
[1] = tested on: mustard beetle larvae (Phaedon cochleariae); test: Phaedon larvae test; type: in vivo; conditions: active compound concentration of 0.1%; after 7 days; dipped cabbage leaves (Brassica oleracea)
Protocol: Phaedon Larvae Test Solvent: 7 parts by weight of dimethylformamide Emulsifier: 1 part by weight of alkylaryl polyglycol ether To produce a suitable preparation of active compound, 1 part by weight of active compound is mixed with the stated amount of solvent and the stated amount of emulsifier, and the concentrate is diluted with water to the desired concentration. Cabbage leaves (Brassica oleracea) are treated by being dipped into the preparation of active compound of the desired concentration and are populated with mustard beetle larvae (Phaedon cochleariae) while the leaves are still moist. After the desired period of time, the kill in % is determined. 100% means that all beetle larvae have been killed; 0% means that none of the beetle larvae have been killed.

Amaranthus [2] = test: Pre-emergence test; type: in vivo; conditions: application rate of 250 g/ha, after three weeks, 0%=no effect, 100%=total destruction
Protocol: (§1) Pre-Emergence Test Solvent: 5 parts by weight of acetone Emulsifier: 1 part by weight of alkylaryl polyglycol ether To produce a suitable preparation of active compound, 1 part by weight of active compound is mixed with the stated amount of solvent, the stated amount of emulsifier is added and the concentrate is diluted with water to the desired concentration. Seeds of the test plants are sown in normal soil. After about 24 hours, the soil is sprayed with the preparation of active compound in such a way as to apply the particular amounts of active compound desired per unit area. The concentration of the spray liquor is chosen such that the particular amounts of active compound desired are applied in 1000 l of water/ha. After three weeks, the degree of damage to the plants is rated in % damage in comparison to the development of the untreated control. The figures denote: 0%=no effect (like untreated control) 100%=total destruction

Abutilon [3] = test: Pre-emergence test; type: in vivo; conditions: application rate of 250 g/ha, after three weeks, 0%=no effect, 100%=total destruction
Protocol: as §1

Setaria [4] = test: Pre-emergence test; type: in vivo; conditions: application rate of 250 g/ha, after three weeks, 0%=no effect, 100%=total destruction
Protocol: as §1

Sinapis [5] = test: Pre-emergence test; type: in vivo; conditions: application rate of 250 g/ha, after three weeks, 0%=no effect, 100%=total destruction
Protocol: as §1

Amaranthus [6] = test: Post-emergence test; type: in vivo; conditions: application rate of 250 glha, after three weeks, 0%=no effect, 100%=total destruction
Protocol: (§2) Post-Emergence Test Solvent: 5 parts by weight of acetone Emulsifier: 1 part by weight of alkylaryl polyglycol ether To produce a suitable preparation of active compound, 1 part by weight of active compound is mixed with the stated amount of solvent, the stated amount of emulsifier is added and the concentrate is diluted with water to the desired concentration. Test plants which have a height of 5-15 cm are sprayed with the preparation of active compound in such a way that the particular amounts of active compound desired are applied per unit area. The concentration of the spray liquor is chosen such that the particular amounts of active compound desired are applied in […] of water/ha. After three weeks, the degree of damage to the plants is rated in % damage in comparison to the development of the untreated control. The figures denote: 0%=no effect (like untreated control) 100%=total destruction

Abutilon [7] = test: Post-emergence test; type: in vivo; conditions: application rate of 250 glha, after three weeks, 0%=no effect, 100%=total destruction
Protocol: as §2

Setaria [8] = test: Post-emergence test; type: in vivo; conditions: application rate of 250 glha, after three weeks, 0%=no effect, 100%=total destruction
Protocol: as §2

Sinapis [9] = test: Post-emergence test; type: in vivo; conditions: application rate of 250 glha, after three weeks, 0%=no effect, 100%=total destruction
Protocol: as §2

melting point: 171 °C
Structure (SMILES): Nn1c(C(F)(F)F)cc(=O)n(-c2ccc(OCc3ccc(Cl)nc3)cc2F)c1=O [Preparation Example 3, 3-amino-1-[2-fluoro4-(2-chloro-pyridin-5-yl-methoxy)-phenyl]4-trifluoromethyl-3,6-dihydro-2,6-dioxo-1 (2H)-pyrimidine]

melting point: 212 °C
Structure (SMILES): O=c1cc(C(F)(F)F)[nH]c(=O)n1-c1ccc(OCc2ccc(Cl)nc2)cc1F [Example 1, 1-[2-fluoro-4-(2-chloro-pyridin-5-y1-methoxy)-phenyl]-4-trifluoromethyl-3,6-dihydro-2,6-dioxo-1(2H)-pyrimidine]

Structure (SMILES): Nn1c(C(F)(F)F)cc(=O)n(-c2ccc(OCc3ccc(Cl)nc3)cc2F)c1=O [compound 3]
kill in % [1]: 100%
degree of damage to the plants (% damage), Amaranthus (Amaranthus [2]): 100%
degree of damage to the plants (% damage), Abutilon (Abutilon [3]): 100%
degree of damage to the plants (% damage), Setaria (Setaria [4]): 100%
degree of damage to the plants (% damage), Sinapis (Sinapis [5]): 100%
degree of damage to the plants (% damage), Amaranthus (Amaranthus [6]): 100%
degree of damage to the plants (% damage), Abutilon (Abutilon [7]): 100%
degree of damage to the plants (% damage), Setaria (Setaria [8]): 100%
degree of damage to the plants (% damage), Sinapis (Sinapis [9]): 100%

melting point: 164 °C
Structure (SMILES): Cn1c(C(F)(F)F)cc(=O)n(-c2ccc(OCc3ccc(Cl)nc3)cc2F)c1=O [Preparation Example 2, 1-[2-fluoro4-(2-chloro-pyridin-5-yl-methoxy)-phenyl]-3-methyl4-trifluoromethyl-3,6-dihydro-2,6-dioxo-1 (2H)-pyrimidine]
degree of damage to the plants (% damage), Amaranthus (Amaranthus [2]): 100%
degree of damage to the plants (% damage), Abutilon (Abutilon [3]): 100%
degree of damage to the plants (% damage), Setaria (Setaria [4]): 100%
degree of damage to the plants (% damage), Sinapis (Sinapis [5]): 100%
degree of damage to the plants (% damage), Amaranthus (Amaranthus [6]): 100%
degree of damage to the plants (% damage), Abutilon (Abutilon [7]): 100%
degree of damage to the plants (% damage), Setaria (Setaria [8]): 100%
degree of damage to the plants (% damage), Sinapis (Sinapis [9]): 100%
